Several values for one entry are separate records, joined by “and”; a condition that tells them apart may be missing. Equal values may be shown once. Read-outs that look alike come from different tables or passages of the source.

This note sets out measurements from PMC9151520 (Archives of Toxicology, 2022).

Series [1] relates to p53 signaling (p53RE-bla HCT-116 cells). The experiment in a line: cells. Format: cell-based. The settings on record: for EC50 / Emax: Homo sapiens.
Series [2] has the same test system.
The test system is the same in series [3]. This is another data set of the same source.
Series [4] has as its system p53RE-bla HCT-116 cells.
In series [5] the test system is p53RE-bla HCT-116 cells. Description: cells. The settings on record: Homo sapiens.
The test system of series [6] is p53 signaling (p53RE-bla HCT-116 cells). Description: cells. Format: cell-based. The settings on record: Homo sapiens; for EC50: HCT-116, 0.5 h.
For series [7] the test system is unchanged. The experiment in a line: cells. The series is classed as cell-based. The note with it: Homo sapiens; for EC50: HCT-116.
The test system is the same in series [8]. Description: cells. The settings on record: Homo sapiens.
Series [9] shares this test system. Description: cells. The settings on record: Homo sapiens; for EC50: HCT-116, read-out: p53 activation EC50, HLM.
[10] abbreviates: HCT-116, read-out: EC50, p53 activation, cherry pick confirmation.
Setting [11] is: HCT-116, read-out: EC50, p53 activation, primary screening.
Setting [12] is: HCT-116, read-out: Efficacy, p53 activation, cherry pick confirmation.
Where [13] appears, read: HCT-116, read-out: Efficacy, p53 activation, primary screening.
Where [14] appears, read: HCT-116, read-out: EC50, viability, cherry pick confirmation.
The mark [15] stands for this setting: read-out: EC50, viability, primary screening.
Where [16] appears, read: HCT-116, read-out: EC50, viability, primary screening.
Setting [17] is: read-out: p53 activation EC50, RLM.
[18] abbreviates: HCT-116, read-out: p53 activation EC50, RLM.
[19] abbreviates: HCT-116, read-out: p53 activation efficacy.

For `Oc1cc(Cl)c(Cl)c(Cl)c1` [3,4,5-Trichlorophenol], in [1] (setting [10]), the EC50 is 48.4 µM. Also, the EC50 in series [1] (setting [11]) was 40.3 µM. For the same compound, the Emax in [1] (setting [12]) was 40.3%. The Emax in [1] (setting [13]) was determined as 25.7%. Further, in series [2], the “EC50, p53 activation, cherry pick confirmation” value was “inactive”; the “EC50, p53 activation, primary screening” value is “inactive”; the “Efficacy, p53 activation, cherry pick confirmation” value (“Efficacy … cherry pick confirmation” for short) is “inactive”; the “Efficacy, p53 activation, primary screening” value is “inactive”. Also, in series [3], the “EC50, p53 activation, cherry pick confirmation” value is “inactive”; the “EC50, p53 activation, primary screening” value is “inactive”; the “Efficacy … cherry pick confirmation” value was “inactive”; the “Efficacy, p53 activation, primary screening” value is “inactive”. In addition, in the series with p53RE-bla HCT-116 cells [4], the “EC50, viability, cherry pick confirmation” value was “inactive”; the “EC50, viability, primary screening” value is “inactive”; the “Efficacy, viability, primary screening” value is “inactive”. For the same compound, in the series with p53RE-bla HCT-116 cells [5] (setting [14]), the EC50 was 27.4 µM.
`CN(C)c1ccc(C(=C2C=CC(=[N+](C)C)C=C2)c2ccc(N(C)C)cc2)cc1` [Gentian Violet]: the EC50 in series [1] (setting [10]) was 23.6 µM; in [1] (setting [11]), 51.1 µM; in the series with p53RE-bla HCT-116 cells [4] (read-out: EC50, viability, cherry pick confirmation), 27.6 µM and 21.3 µM; in the series on p53RE-bla HCT-116 cells [4] (setting [15]), 16 µM and 24.9 µM; in the series with p53RE-bla HCT-116 cells [5] (setting [14]), 22 µM; in the series on p53RE-bla HCT-116 cells [5] (setting [16]), 29.2 µM. The values for the Emax in series [1] (setting [12]) and in series [1] (setting [13]) were 48.7% and 65.5%, respectively. For the same compound, the “EC50, p53 activation, cherry pick confirmation” value in series [2] and in series [3] was “inactive” in each case. For the same compound, the “EC50, p53 activation, primary screening” value in [2] and in series [3] was “inactive” in each case. In addition, the “Efficacy … cherry pick confirmation” value in series [2] and in series [3] was “inactive” throughout. Besides, the “Efficacy, p53 activation, primary screening” value in series [2] and in [3] was “inactive” throughout.
On to `CC(C)(c1cc(Br)c(O)c(Br)c1)c1cc(Br)c(O)c(Br)c1` [3,3',5,5'-Tetrabromobisphenol A], for which the “EC50, p53 activation, cherry pick confirmation” value in series [1], in [2] and in series [3] was “inactive” in each case. In addition, the “Efficacy … cherry pick confirmation” value in series [1], in series [2] and in series [3] was “inactive” each time. Also, the EC50 in series [1] (setting [11]) was 30.1 µM; in the series with p53RE-bla HCT-116 cells [4] (setting [15]), 34.9 µM and 45.8 µM; in the series with p53RE-bla HCT-116 cells [5] (setting [16]) it was 34.3 µM. The Emax in series [1] (setting [13]) was found to be 91.5%. Besides, the “EC50, p53 activation, primary screening” value in series [2] and in [3] was “inactive” throughout. In addition, the “Efficacy, p53 activation, primary screening” value in series [2] and in [3] was “inactive” each time.
As to `CCOP(=S)(OCC)O/N=C(\C#N)c1ccccc1` [Phoxim], the “p53 activation EC50, No MS” value in [1] is “inactive”. For the same compound, the “p53 activation Efficacy, No MS” value in series [1] is “inactive”. Also, the EC50 in series [6] turned out to be 5.35 µM; in [7] it was 5.3 µM; in series [2] (setting [17]), 5.83 µM; in series [8] (HCT-116), 4.42 µM; in series [8] (setting [18]) it was 3.04 µM; in series [9], 2.17 µM. For the same compound, the Emax is 43.5% in series [6] (HCT-116, read-out: efficacy); 42.2% in [7] (HCT-116, read-out: efficacy); 34.4% in [8] (HCT-116, read-out: efficacy). In addition, in [3], the “p53 activation EC50, HLM” value is “inactive”. In addition, the “Viability EC50, HLM” value in the series with p53RE-bla HCT-116 cells [4] was “inactive”. Besides, the “Viability EC50, No MS” value with p53RE-bla HCT-116 cells [4] is “inactive”. For the same compound, the “Viability EC50, RLM” value in the series on p53RE-bla HCT-116 cells [4] was “inactive”. In addition, the “Viability Efficacy, HLM” value in the series on p53RE-bla HCT-116 cells [4] was “inactive”. Also, the “Viability Efficacy, No MS” value in the series on p53RE-bla HCT-116 cells [4] is “inactive”. Besides, in the series on p53RE-bla HCT-116 cells [4], the “Viability Efficacy, RLM” value was “inactive”.
As for `COP(=S)(OC)Oc1ccc(SC)c(C)c1` [Fenthion], in series [1], the “p53 activation EC50, No MS” value was “inactive” and the “p53 activation Efficacy, No MS” value was “inactive”. Besides, it took 1.28 µM to reach a half-maximal effect in series [6] (EC50). Moreover, in series [7], the midpoint of the response, the EC50, lay at 8.86 µM. In addition, in series [2] (setting [17]), the EC50 was found to be 7.2 µM. Besides, the “p53 activation EC50, HLM” value in series [3] is “inactive”. In addition, in the series on p53RE-bla HCT-116 cells [4], the “Viability EC50, HLM” value is “inactive”; the “Viability EC50, No MS” value is “inactive”; the “Viability EC50, RLM” value was “inactive”; the “Viability Efficacy, HLM” value was “inactive”. In addition, in the series on p53RE-bla HCT-116 cells [4], the “Viability Efficacy, No MS” value is “inactive” and the “Viability Efficacy, RLM” value was “inactive”. In [8] (HCT-116), a half-maximal effect (EC50) was put at 7.81 µM. Moreover, the Emax in series [8] (HCT-116, read-out: efficacy) was 39%. In addition, the EC50 in series [8] (setting [18]) is 8.91 µM. For the same compound, in series [9], the EC50 turned out to be 1.1 µM.
On to `COP(N)(=O)SC` (centres unmarked) [Methamidophos], for which, in series [1], the “p53 activation EC50, No MS” value is “inactive” and the “p53 activation Efficacy, No MS” value is “inactive”. The EC50 in series [6] turned out to be 6.02 µM. In series [7], the EC50 was 9.77 µM. In [2] (setting [17]), the EC50 is 13.8 µM. The “p53 activation EC50, HLM” value in series [3] was “inactive”. In the series with p53RE-bla HCT-116 cells [4], the “Viability EC50, HLM” value is “inactive”; the “Viability EC50, No MS” value is “inactive”; the “Viability EC50, RLM” value was “inactive”; the “Viability Efficacy, HLM” value is “inactive”. Also, in the series with p53RE-bla HCT-116 cells [4], the “Viability Efficacy, No MS” value was “inactive” and the “Viability Efficacy, RLM” value was “inactive”. In [8] (HCT-116), this compound displayed an EC50 of 11.4 µM. The Emax in series [8] (HCT-116, read-out: efficacy) was 48.9%. For the same compound, the EC50 in series [8] (setting [18]) worked out at 11.2 µM. In addition, the concentration giving a half-maximal response (EC50) in [9] amounted to 2.04 µM.
Regarding `CCOP(=S)(OCC)OC(Cl)C(Cl)(Cl)Cl` (centres unmarked) [Chlorethoxyfos], the “p53 activation EC50” value in series [1] and in series [3] was “inactive” each time. In addition, the p53 activation efficacy entry in series [1] was “inactive”; in series [2], 53.0303. For the same compound, the EC50 in series [6] was 0.75 µM; in series [7] it was 7.79 µM; in [2] (read-out: p53 activation EC50) it was 11.7 µM; in [8] (HCT-116), 11.4 µM. Besides, in the series on p53RE-bla HCT-116 cells [4], the “Viability EC50” value is “inactive”. Further, in the series on p53RE-bla HCT-116 cells [4], the Viability efficacy entry is “inactive”. Moreover, the Emax in [8] (HCT-116, read-out: efficacy) is 35.9%; in [8] (setting [19]), 43.1%; in series [9] (setting [19]), 44%.
As to `CNC(=O)O/N=C(\SC)C(=O)N(C)C` [Oxamyl], in [1], the “p53 activation EC50, No MS” value is “inactive” and the “p53 activation Efficacy, No MS” value was “inactive”. This compound also had an EC50 in series [6] of 14.4 µM. Further, the EC50 in series [7] turned out to be 22.4 µM. Further, in series [2] (setting [17]), the EC50 was determined as 10.9 µM. Moreover, the “p53 activation EC50, HLM” value in [3] is “inactive”. In addition, in the series with p53RE-bla HCT-116 cells [4], the “Viability EC50, HLM” value was “inactive”; the “Viability EC50, No MS” value is “inactive”; the “Viability EC50, RLM” value is “inactive”; the “Viability Efficacy, HLM” value was “inactive”. Further, in the series on p53RE-bla HCT-116 cells [4], the “Viability Efficacy, No MS” value was “inactive” and the “Viability Efficacy, RLM” value was “inactive”. In series [8] (HCT-116), the EC50 was 14.2 µM. Besides, the Emax in [8] (HCT-116, read-out: efficacy) is 58.1%. For the same compound, the EC50 in [8] (setting [18]) turned out to be 14.1 µM. Further, in series [9], the EC50 was determined as 2.96 µM.

Usually EC50 stands for the concentration at which the effect is half-maximal.
